This is an account of results in ChEMBL document CHEMBL1201862, “PubChem BioAssay data set” (2004).

Each structure is given as a SMILES string.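 All cell lines were grown in 96-well plates and treated with compound for 48 hours. GI50 is the concentration that inhibits growth by half.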 Activity calls are given as the source filed them. Cut-off read from the data, not from the text of the source: active = GI50 up to about 1.1 µM and inactive = higher.

A word on the GI50: it is the concentration that inhibits growth by half.

Common to all, as to experiment: DTP human tumour cell line panel, 48 h
Test [1] deals with A498.
The test system of test [2] is A549.
Test [3] concerns COLO 205.
For test [4], the system named is HCT-15.
The test system of test [5] is HL-60.
Test [6] deals with Hs-578T.
Test [7] has as its system IGROV-1.
Test [8] concerns K562.
In test [9] the test system is LOX IMVI.
Test [10] deals with MCF7.
For test [11], the system named is MDA-N.
For test [12], the system named is Malme-3M.
The test system of test [13] is OVCAR-3.
The subject of test [14] is SK-MEL-28.
Test [15] concerns SNB-19.
Test [16] has as its system SW-620.
The test system of test [17] is TK-10.
For test [18], the system named is U-251.
Test [19] concerns UACC-62.
In test [20] the test system is UO-31.

As to `CC(=O)NC1=C(OS(=O)(=O)c2ccc(C)cc2)CN(C)C1=O`, the GI50 in test [1] was 4.25 µM (inactive); in test [2] it was 3.5 µM (inactive); in [3], 5.75 µM (inactive); in [4], 2.96 µM; in test [5] it was 2.83 µM (inactive); in test [6], 4.03 µM (inactive). For the same compound, the GI50 is 3.39 µM (inactive) in [7]; 3.61 µM (inactive) in test [8]; 4.6 µM (inactive) in [9]; 2.89 µM (inactive) in [10]; 4.56 µM (inactive) in test [11]; 2.26 µM (inactive) in [12]. The GI50 is 2.74 µM (inactive) in test [13]; 10.3 µM (inactive) in [14]; 3.43 µM (inactive) in [15]; 4.68 µM (inactive) in test [16]; 1.94 µM (inactive) in [17]; 2.7 µM (inactive) in test [18]. The GI50 in test [19] was 6.79 µM (inactive); in test [20], 3.44 µM (inactive).
For `O=[N+]([O-])/C=C/c1c(Cl)cccc1Cl`, the GI50 in test [1] was 16.4 µM (inactive); in test [2] it was 8.63 µM (inactive); in test [3] it was 0.849 µM (active); in test [4] it was 1.48 µM; in test [5], 1.24 µM (inactive); in [6] it was 9.44 µM (inactive). Besides, the GI50 in [7] was 3.65 µM (inactive); in [8] it was 1.68 µM (inactive); in [9], 1.37 µM (inactive); in test [10] it was 1.64 µM (inactive); in test [11] it was 2.89 µM (inactive); in test [12] it was 3.05 µM (inactive). In addition, the GI50 in [13] was 1.3 µM (inactive); in [14], 4.97 µM (inactive); in test [15] it was 5.28 µM (inactive); in test [16], 0.966 µM (active); in test [17] it was 2.67 µM (inactive); in [18], 2.61 µM (inactive). Also, the GI50 in test [19] is 2.77 µM (inactive); in test [20], 3.76 µM (inactive).
Regarding `N#Cc1ccccc1NC(=O)C(=O)c1c(O)c2ccccc2oc1=O`, the GI50 is > 100 µM (inactive) in [1]; > 100 µM (inactive) in test [2]; above 100 µM in [4]; > 100 µM (inactive) in [5]; > 100 µM (inactive) in [6]; > 100 µM (inactive) in test [7]. The GI50 in test [8], in [9], in [10], in test [11], in test [12] and in test [13] was > 100 µM (inactive) throughout. Further, the GI50 in [14], in test [15], in [16], in test [17], in test [18] and in [19] was > 100 µM (inactive) in each case. In test [20], the GI50 is > 100 µM (inactive).
Turning to `CN(C)CCNC(=O)c1cccc2c(NCC(=O)O)c3ccccc3nc12`, the GI50 in test [1] was 18.6 µM (inactive); in test [2], 7.85 µM (inactive); in [3], 5.21 µM (inactive); in test [4], 10.1 µM; in test [5], > 100 µM (inactive); in [6], 18.5 µM (inactive). Further, the GI50 in test [7] was 8.51 µM (inactive); in test [8], 14 µM (inactive); in test [9], 4.97 µM (inactive); in [10], 3.79 µM (inactive); in [11], 14 µM (inactive); in test [12] it was 11 µM (inactive). For the same compound, the GI50 in test [13] was 19.9 µM (inactive); in test [14], 20.6 µM (inactive); in [15], 6.49 µM (inactive); in [16] it was 6.62 µM (inactive); in [17] it was 31 µM (inactive); in [18], 24.5 µM (inactive). The GI50 in test [19] is 15.1 µM (inactive); in [20] it was 7.4 µM (inactive).
Regarding `O=C(NCCCCCCNCc1cccc2ccccc12)Nc1cccc2ccccc12`, the GI50 in test [1] was > 100 µM (inactive); in test [2] it was > 100 µM (inactive); in test [3], > 100 µM (inactive); in [4], above 100 µM; in test [5] it was > 100 µM (inactive); in test [6] it was > 100 µM (inactive). The GI50 in test [7], in [8], in test [9], in [10], in test [11] and in test [12] was > 100 µM (inactive) throughout. Also, the GI50 in [13], in [14], in [15], in [16], in test [17] and in test [18] was > 100 µM (inactive) in each case. The GI50 in [19] was > 100 µM (inactive); in test [20], 51.6 µM (inactive).
Turning to `CC1=CC(=O)/C(=C/NC(=S)c2ccncc2)C(=O)O1`, the GI50 is > 100 µM (inactive) in test [1]; > 100 µM (inactive) in [2]; > 100 µM (inactive) in test [3]; above 100 µM in [4]; > 100 µM (inactive) in test [5]; > 100 µM (inactive) in test [6]. Further, the GI50 was 38.7 µM (inactive) in test [7]; > 100 µM (inactive) in test [9]; > 100 µM (inactive) in [10]; > 100 µM (inactive) in test [11]; 83.2 µM (inactive) in test [12]; > 100 µM (inactive) in test [13]. Moreover, the GI50 in test [14], in test [15], in [16], in [17], in test [18] and in test [19] was > 100 µM (inactive) throughout. In addition, the GI50 in test [20] is > 100 µM (inactive).
`C/C(=C\COc1ccc2ccc(=O)oc2c1)CCC(=O)C(C)(C)O`: the GI50 in [1] is 24 µM (inactive); in [2] it was 26.7 µM (inactive); in test [3] it was 20.7 µM (inactive); in test [4] it was 17.1 µM; in [5] it was 15.2 µM (inactive); in test [6], 26.4 µM (inactive). The GI50 in test [7] was 35.1 µM (inactive); in test [8], 16.2 µM (inactive); in test [9], 13.8 µM (inactive); in test [10], 19.1 µM (inactive); in test [11], 25.6 µM (inactive); in [12], 44.9 µM (inactive). Besides, the GI50 was 17.9 µM (inactive) in test [13]; 39.9 µM (inactive) in test [14]; 32.7 µM (inactive) in test [15]; 19.5 µM (inactive) in [16]; 39.3 µM (inactive) in test [17]; 19.8 µM (inactive) in test [18]. For the same compound, the GI50 in [19] is 18.3 µM (inactive); in test [20], 28.4 µM (inactive).
Take `O=C1OC(=O)C2CCCC3CCCC1C32` (stereo not drawn): the GI50 in test [1] was > 100 µM (inactive); in test [2] it was > 100 µM (inactive); in test [3], > 100 µM (inactive); in test [4] it was above 100 µM; in test [5], > 100 µM (inactive); in test [6] it was > 100 µM (inactive). Moreover, the GI50 in [7], in [8], in [9], in test [10], in test [11] and in test [12] was > 100 µM (inactive) throughout. Besides, the GI50 in test [13], in test [14], in [15], in test [16], in test [17] and in test [18] was > 100 µM (inactive) in each case. Besides, the GI50 in test [19] and in [20] was > 100 µM (inactive) each time.
